In patent US20260070899A1, “N-(2-(4-CYANOTHIAZOLIDIN-3-YL)-2-OXOETHYL)-QUINOLINE-4-CARBOXAMIDES” (AstraZeneca AB, priority 2022, published 2026):

Columns and labels:
[1] = biological target: T1, FAP enzyme activity in mouse plasma (Mus musculus, UniProt P97321); assay: FAP target engagement enzyme activity in mouse plasma (in vivo); details: male C57Bl/6 mice, single oral dose 3 or 10 mg/kg; exposure vs plasma FAP activity, Imax fixed to 1
T1 construct: tissue Charles River; host or cells: plasma of male C57Bl/6 mice after oral dosing
T1 sequence (P97321 24-761 limits assumed): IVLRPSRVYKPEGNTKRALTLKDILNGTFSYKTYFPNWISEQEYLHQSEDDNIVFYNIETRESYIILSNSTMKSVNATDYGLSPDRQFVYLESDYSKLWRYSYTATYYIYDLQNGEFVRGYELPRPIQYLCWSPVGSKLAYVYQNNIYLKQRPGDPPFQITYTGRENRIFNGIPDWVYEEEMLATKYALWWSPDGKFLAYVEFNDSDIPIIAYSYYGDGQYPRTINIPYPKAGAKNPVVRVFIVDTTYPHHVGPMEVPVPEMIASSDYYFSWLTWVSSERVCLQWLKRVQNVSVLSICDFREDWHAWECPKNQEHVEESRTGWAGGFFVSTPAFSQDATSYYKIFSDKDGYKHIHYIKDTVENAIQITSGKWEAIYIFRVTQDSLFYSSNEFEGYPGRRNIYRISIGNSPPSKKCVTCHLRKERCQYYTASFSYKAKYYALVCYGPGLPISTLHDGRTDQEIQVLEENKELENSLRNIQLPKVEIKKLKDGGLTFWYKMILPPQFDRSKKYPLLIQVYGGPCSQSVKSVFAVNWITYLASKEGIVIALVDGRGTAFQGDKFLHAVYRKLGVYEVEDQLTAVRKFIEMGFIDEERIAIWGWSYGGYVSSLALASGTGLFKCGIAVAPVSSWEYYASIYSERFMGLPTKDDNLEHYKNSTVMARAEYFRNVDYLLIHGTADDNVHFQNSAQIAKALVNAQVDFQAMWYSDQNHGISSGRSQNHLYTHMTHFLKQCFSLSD
Protocol: The effect of test compound on FAP enzyme activity in mouse plasma was evaluated in an enzymatic assay using the Fibroblast Activation Protein alpha (FAP) specific fluorogenic substrate dipeptide-Coumarin, Ala-Pro-AMC, (ARI-3144). In this assay, FAP cleaves Ala-Pro-AMC to release free AMC which is measured as a fluorescent signal that correlates with enzyme activity.
Male C57Bl/6 mice (Charles River, Germany), 8 weeks of age, were single housed in a temperature-controlled room with a 12-hour light/dark cycle (06:00-18:00 light). The mice had ad libitum access to water and rodent chow diet (R70, Lactamin, Kimstad, Sweden), and were acclimated for 5 days upon arrival. After acclimation, all mice received a single oral dose of test compound (3 or 10 mg/kg). Blood samples for whole blood compound exposure measurements were taken at 0.25, 0.5, 1, 2, 4, 8 and 24 h post oral dosing. Samples were collected in EDTA capillary tubes (20 μL, K2E, REF 19.447) and were transferred to a 96-deep well plate (NUNC, Thermo Discher Scientific) and stored at −20° C. until further analyses were performed. […]
Recombinant human FAP (PB-17-1837, construct PL-17-0278, cd33-FAP (27-757)-6His, Mw85926 Da) was used as a standard for this assay. […] The plates were read on a Beckman Paradigm reader with excitation 360 nm and emission 465 nm. Fluorescence measurements were performed with kinetic read every 5 minutes for 60 min at rt. Data were analyzed in Excel (IDBS XLfit Add-In) using a Linear Regression (y=k*x+m) model to prepare a human recombinant FAP standard curve.
On the day of the assay, plasma was diluted (1:2) to 20 μL volume in buffer (PBS, 0.1% BSA) and 7.5 μL was transferred to the assay plate (384-well black, fluotrack PS, Greiner 781076). […] The plates were read on a Beckman Paradigm reader with excitation 360 nm and emission 465 nm. Fluorescence measurements were performed with kinetic read every 5 minutes for 60 minutes at rt. As noted above, FAP cleaves Ala-Pro-AMC to release free AMC which is measured as a fluorescent signal. […]

[2] = biological target: T2, human dipeptidylpeptidase 9 (hDPP9) (Homo sapiens, UniProt Q86TI2); assay: hDPP9 inhibition assay; format: biochemical; details: hDPP9 0.4 nM, Ala-Pro-amino-methylcoumarin 5 μM; n = 1
T2 construct: purchased BPS Bioscience 80090
Protocol: Compounds were tested in a biochemical inhibition assay using human dipeptidylpeptidase 9 (hDPP9) enzyme at 0.4 nM FAC (BPS Bioscience, #80090) and the substrate Ala-Pro-amino-methylcoumarin (BPS Bioscience #80305) at 5 μM FAC. The enzymatic reactions were conducted in duplicate at rt for 30 min in 50 μL DPP assay buffer (BPS Bioscience, #80300). Compound solutions (in DMSO) at 10 CR, 3 fold dilution series were prepared in assay buffer ten-fold higher than the final concentration, and 5 μL of the dilution was added to a 50 μL reaction so that the highest compound concentration was 100 μM FAC and the concentration of DMSO was 1% in all wells. The plates were read on a Tecan Infinite M1000 microplate reader with excitation 340 nm and emission 460 nm. Data were analyzed in Graph Pad Prism. […] Raw data signals were normalized using 1% DMSO as 0% control and no enzyme as 100% inhibitor control.

Rat Hepatocytes (rHep) = assay: Metabolic stability in rat hepatocytes (rHep); format: in vitro ADME; details: n = 1 or geometric mean (n = 2-3)
Protocol: Metabolic stability in rat hepatocytes was measured as described in J Comput Aided Mol Des 2015, 29, 795.

T2 sequence (Q86TI2 whole entry): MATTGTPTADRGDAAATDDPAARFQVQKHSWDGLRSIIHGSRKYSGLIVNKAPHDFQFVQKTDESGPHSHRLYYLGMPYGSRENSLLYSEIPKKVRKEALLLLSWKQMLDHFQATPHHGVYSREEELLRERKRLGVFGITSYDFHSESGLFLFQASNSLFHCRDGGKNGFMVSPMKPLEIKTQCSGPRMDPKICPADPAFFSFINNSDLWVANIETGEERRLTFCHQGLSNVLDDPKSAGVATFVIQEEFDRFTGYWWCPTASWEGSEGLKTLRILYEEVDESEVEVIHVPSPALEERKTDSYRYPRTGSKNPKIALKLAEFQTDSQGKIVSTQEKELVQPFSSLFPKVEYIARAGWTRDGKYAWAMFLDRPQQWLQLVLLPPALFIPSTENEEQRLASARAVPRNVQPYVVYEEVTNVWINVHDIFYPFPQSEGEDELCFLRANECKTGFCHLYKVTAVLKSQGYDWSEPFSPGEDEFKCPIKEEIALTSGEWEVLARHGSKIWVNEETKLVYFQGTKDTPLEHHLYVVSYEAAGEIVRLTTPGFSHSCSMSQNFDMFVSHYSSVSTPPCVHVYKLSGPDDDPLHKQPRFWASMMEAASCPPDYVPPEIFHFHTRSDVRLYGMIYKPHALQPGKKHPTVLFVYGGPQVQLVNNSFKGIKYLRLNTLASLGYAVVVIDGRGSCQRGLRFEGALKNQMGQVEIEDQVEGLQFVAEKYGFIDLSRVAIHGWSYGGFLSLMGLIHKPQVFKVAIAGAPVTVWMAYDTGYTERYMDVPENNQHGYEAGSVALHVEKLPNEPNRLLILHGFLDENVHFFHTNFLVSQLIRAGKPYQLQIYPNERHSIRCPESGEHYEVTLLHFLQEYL

## CO[C@H]1CC[C@H](c2ccc3nccc(C(=O)NCC(=O)N4CSC[C@H]4C#N)c3c2)CC1 (single isomer, unassigned) [Example 78, N-(2-((R)-4-Cyanothiazolidin-3-yl)-2-oxoethyl)-6-((1r,4R*)-4-methoxycyclohexyl)quinoline-4-carboxamide]
[1]
  IC50: 2.6 nM

## CC(C)(F)COc1ccc2nccc(C(=O)NCC(=O)N3CSC[C@H]3C#N)c2c1 [Example 3, (R)—N-(2-(4-Cyanothiazolidin-3-yl)-2-oxoethyl)-6-(2-fluoro-2-methylpropoxy)quinoline-4-carboxamide]
[2]
  IC50: 1900 nM
[1]
  IC50: 7.6 nM

## COC(C)(C)c1ccc2nccc(C(=O)NCC(=O)N3CSC[C@H]3C#N)c2c1 [Example 18, (R)—N-(2-(4-Cyanothiazolidin-3-yl)-2-oxoethyl)-6-(2-methoxypropan-2-yl)quinoline-4-carboxamide]
Rat Hepatocytes (rHep)
  rHeps CLint: 26 μL/min/1E6

## N#C[C@@H]1CSCN1C(=O)CNC(=O)c1ccnc2ccc(C3CCOCC3)cc12 [Example 20, (R)—N-(2-(4-Cyanothiazolidin-3-yl)-2-oxoethyl)-6-(tetrahydro-2H-pyran-4-yl)quinoline-4-carboxamide]
[1]
  IC50: 8.8 nM
